Measurements as given in ChEMBL document CHEMBL5154763, “Discovery of 3H-pyrrolo[2,3-c]quinolines with activity against Mycobacterium tuberculosis by allosteric inhibition of the glutamate-5-kinase enzyme” (Eur J Med Chem, 2022).
pIC50: −log10 of the molar value. In brackets after ≈: the same amount, converted by molar mass. Activity calls are given as the source filed them. The calls are words filed in the database; no cut-off is given here.

Assays:
Acetylcholinesterase = Acetylcholinesterase (Electrophorus electricus, UniProt O42275); assay: Inhibition of electric eel AChE using acetylthiocholine iodide as substrate by spectrophotometric analysis
[1] = test system: Mycobacterium tuberculosis; assay: Antitubercular activity against Mycobacterium tuberculosis H37Rv assessed as inhibition of bacterial growth measured after 8 days by Alamar blue assay; assay type: functional; conditions: 192 h, time 8 day
Plasmodium falciparum [2] = assay: Antiplasmodial activity against chloroquine-sensitive Plasmodium falciparum 3D7; assay type: functional, organism-based
Plasmodium falciparum [3] = assay: Antiplasmodial activity against chloroquine-resistant Plasmodium falciparum Dd2; assay type: functional, organism-based
[4] = biological target: T1, Glutamate 5-kinase (Escherichia coli) (UniProt P0A7B5); assay: Allosteric inhibition of Escherichia coli G5K assessed as enzyme residual activity using 150 mM L-Glu and 2.2 to 8.4 mM ATP as substate by NADH-coupled assay relative to control
T1 sequence (whole entry): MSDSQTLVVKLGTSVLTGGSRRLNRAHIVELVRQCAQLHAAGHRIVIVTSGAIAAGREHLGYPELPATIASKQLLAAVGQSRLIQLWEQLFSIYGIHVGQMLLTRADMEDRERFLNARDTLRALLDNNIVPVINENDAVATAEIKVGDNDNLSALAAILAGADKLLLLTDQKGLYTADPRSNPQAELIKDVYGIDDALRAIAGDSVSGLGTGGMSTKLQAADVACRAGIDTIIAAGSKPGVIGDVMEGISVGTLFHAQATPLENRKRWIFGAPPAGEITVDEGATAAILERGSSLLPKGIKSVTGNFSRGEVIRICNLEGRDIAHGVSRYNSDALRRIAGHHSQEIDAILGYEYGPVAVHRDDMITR

[5] = Cytotoxicity against human HepG2 cells assessed as inhibition of cell growth at 10 uM measured after 48 hrs by MTT assay relative to control; assay type: toxicity, cell-based
[6] = Cytotoxicity against human HepG2 cells assessed as inhibition of cell growth at 5 uM measured after 48 hrs by MTT assay relative to control; assay type: toxicity, cell-based
[7] = Cytotoxicity against human HepG2 cells assessed as inhibition of cell growth at 20 uM measured after 48 hrs by MTT assay relative to control; assay type: toxicity, cell-based
[8] = biological target: T1, Glutamate 5-kinase (Escherichia coli); assay: Allosteric inhibition of Escherichia coli G5K assessed as increase in apparent Km for ATP using L-Glu and ATP as substate at 120 uM by NADH-coupled assay; conditions: filed as negative allosteric modulator
[9] = biological target: T1, Glutamate 5-kinase (Escherichia coli); assay: Allosteric inhibition of Escherichia coli G5K using 10 mM L-Glu and 10 mM ATP as substate by NADH-coupled assay; conditions: filed as negative allosteric modulator
[10] = biological target: T1, Glutamate 5-kinase (Escherichia coli); assay: Allosteric inhibition of Escherichia coli G5K assessed as enzyme residual activity using 150 mM L-Glu and 10 mM ATP as substate by NADH-coupled assay relative to control
[11] = biological target: T1, Glutamate 5-kinase (Escherichia coli); assay: Allosteric inhibition of Escherichia coli G5K using 150 mM L-Glu and 10 mM ATP as substate by NADH-coupled assay relative to control; conditions: filed as negative allosteric modulator
[12] = biological target: T1, Glutamate 5-kinase (Escherichia coli); assay: Allosteric inhibition of Escherichia coli G5K assessed as decrease in apparent Vmax for ATP using L-Glu and ATP as substate at 120 uM by NADH-coupled assay; conditions: filed as negative allosteric modulator
[13] = test system: Mycobacterium tuberculosis; assay: Antitubercular activity against Mycobacterium tuberculosis H37Rv assessed as inhibition of bacterial growth; assay type: functional

Acetylcholinesterase, sequence (O42275 whole entry): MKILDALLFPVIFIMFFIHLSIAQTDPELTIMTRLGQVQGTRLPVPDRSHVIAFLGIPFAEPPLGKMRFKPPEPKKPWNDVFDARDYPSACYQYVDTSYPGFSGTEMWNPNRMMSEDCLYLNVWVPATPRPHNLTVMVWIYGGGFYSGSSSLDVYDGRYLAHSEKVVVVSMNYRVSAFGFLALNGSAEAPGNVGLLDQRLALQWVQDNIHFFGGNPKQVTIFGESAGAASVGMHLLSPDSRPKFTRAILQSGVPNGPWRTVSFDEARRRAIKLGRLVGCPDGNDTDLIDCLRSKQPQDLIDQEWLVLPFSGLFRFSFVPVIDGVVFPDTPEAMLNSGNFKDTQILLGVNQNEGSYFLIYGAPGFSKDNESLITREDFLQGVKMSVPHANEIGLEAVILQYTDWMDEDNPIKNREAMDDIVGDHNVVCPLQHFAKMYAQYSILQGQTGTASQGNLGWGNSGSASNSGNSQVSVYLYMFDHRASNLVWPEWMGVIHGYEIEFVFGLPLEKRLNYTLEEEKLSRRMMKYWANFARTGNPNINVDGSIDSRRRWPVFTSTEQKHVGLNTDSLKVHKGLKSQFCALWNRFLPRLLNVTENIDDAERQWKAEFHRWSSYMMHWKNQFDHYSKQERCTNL

`c1ccc(Cc2nc3ccccc3c3cc[nH]c23)cc1` [MARINOQUINOLINE C] gave a pIC50 (Acetylcholinesterase) of 5.44.
`Fc1ccc2c(c1)nc(CCc1ccccc1)c1[nH]ccc12` showed an MIC [1] of 34.4 µM (≈ 9.99 µg/mL).
`Cn1ccc2c3ccccc3nc(-c3ccc(Cl)cc3)c21` gave an MIC [1] of 17.1 µM (≈ 5.01 µg/mL).
In the case of `c1ccc(-c2ccc(-c3nc4ccccc4c4cc[nH]c34)cc2)cc1`, the MIC [1] was 31.2 µM (≈ 10 µg/mL).
Work on `Nc1ncnc2c1ncn2Cc1nc2ccccc2c2cc[nH]c12` yielded a pIC50 (Plasmodium falciparum [2]) of 5.83 and a pIC50 (Plasmodium falciparum [3]) of 5.78.
For `Clc1ccc(-c2nc3ccccc3c3cc[nH]c23)cc1`, the MIC [1] was 17.9 µM (≈ 4.99 µg/mL).
For `c1ccc2c(c1)nc(C1CC1)c1[nH]ccc12`, the MIC [1] was 24 µM (≈ 5 µg/mL).
`CCCCCCCCc1nc2cc(F)ccc2c2cc[nH]c12` gave an MIC [1] of 16.8 µM (≈ 5.01 µg/mL).
`Oc1ccc(Cc2nc3ccccc3c3cc[nH]c23)cc1` [MARINOQUINOLINE D] showed a pIC50 (Acetylcholinesterase) of 5.44.
With `COc1ccc2c(c1)nc(CCc1ccccc1)c1[nH]ccc12` the Activity [4] was 66%, the inhibition at 48 h, 10 µM [5] was 3% and the inhibition at 48 h, 5 µM [6] was 1%. For the same compound, the inhibition at 48 h, 20 µM [7] was 17%, the inhibition [8] was “Active” and the I0.5 [9] was 22.1 µM. It also gave an MIC [1] of 4.1 µM (≈ 1.24 µg/mL) and an Activity [10] of 68%.
`Cc1ccc2c(c1)nc(C1CC1)c1[nH]ccc12` gave an MIC [1] of 45 µM (≈ 10 µg/mL).
`c1ccc2c(c1)nc(-c1c[nH]c3ccccc13)c1[nH]ccc12` [MARINOQUINOLINE E] gave a pIC50 (Acetylcholinesterase) of 5.44.
For `COC(=O)c1ccc2c(c1)nc(-c1ccc(Cl)cc1)c1[nH]ccc12`, the MIC [1] was > 500 µM.
With `Clc1ccc(-c2nc3cc(Cl)ccc3c3cc[nH]c23)cc1` the MIC [1] was 16 µM (≈ 5.01 µg/mL).
With `Cc1ccc2c(c1)nc(-c1ccc(Cl)cc1)c1c2ccn1C` the MIC [1] was 16.3 µM (≈ 5 µg/mL).
For `CC(C)Cc1nc2ccccc2c2cc[nH]c12`, the pIC50 (Acetylcholinesterase) was 5.44 and the MIC [1] was 22.6 µM (≈ 5.07 µg/mL).
In the case of `CCCCCCCCc1nc2cc(OC)ccc2c2cc[nH]c12`, the MIC [1] was 16.1 µM (≈ 5 µg/mL).
`O=C(O)[C@@H]1CCCN1` showed an inhibition [11] of 100% and an I0.5 [9] of 2.5 µM.
`Fc1ccc2c(c1)nc(-c1ccc(Cl)cc1)c1[nH]ccc12` showed an inhibition at 48 h, 10 µM [5] of 1%, an inhibition at 48 h, 5 µM [6] of 1% and an inhibition [11] of 40%. For the same compound, the inhibition at 48 h, 20 µM [7] was 2%, the inhibition [12] was “Active” and the I0.5 [9] was 33 µM. It also gave an MIC [1] of 4.2 µM (≈ 1.25 µg/mL).
`COc1c(N2C[C@@H]3CCCN[C@@H]3C2)c(F)cc2c(=O)c(C(=O)O)cn(C3CC3)c12` [MOXIFLOXACIN] gave an MIC [1] of 0.15 µM (≈ 0.0602 µg/mL).
For `CCCCCCCCc1nc2cc(C)ccc2c2cc[nH]c12`, the MIC [1] was 17 µM (≈ 5.01 µg/mL).
In the case of `c1ccc(CCc2nc3ccccc3c3cc[nH]c23)cc1`, the MIC [1] was 36.7 µM (≈ 10 µg/mL).
`CCCCCCCCc1nc2ccccc2c2cc[nH]c12` gave an MIC [1] of 17.8 µM (≈ 4.99 µg/mL).
`O=C(c1c[nH]c2ccccc12)c1nc2ccccc2c2cc[nH]c12` [MARINOQUINOLINE F] showed a pIC50 (Acetylcholinesterase) of 5.44.
`c1ccc2c(c1)nc(-c1ccc(N3CCCC3)cc1)c1c3ncccc3[nH]c21` showed an MIC [13] of 13.7 µM (≈ 4.99 µg/mL).
Compound `Fc1ccc2c(c1)nc(-c1ccc(Cl)cc1)c1c2ccn1CC1CC1` has an MIC [1] of 14.2 µM (≈ 4.98 µg/mL).
Compound `Cc1ccc2c(c1)nc(-c1ccc(Cl)cc1)c1[nH]ccc12` has an MIC [1] of 8.5 µM (≈ 2.49 µg/mL).
Compound `FC(F)(F)c1ccc2c(c1)nc(-c1ccc(Cl)cc1)c1[nH]ccc12` has an MIC [1] of 14.4 µM (≈ 4.99 µg/mL).
`Clc1ccc(-c2nc3ccccc3c3c(Cl)c[nH]c23)cc1` gave an MIC [1] of 16 µM (≈ 5.01 µg/mL).
For `COc1ccc2c(c1)nc(CCc1ccccc1)c1c2ccn1C`, the MIC [1] was 7.9 µM (≈ 2.5 µg/mL).
For `Clc1ccc(-c2nc3ccccc3c3c(Br)c[nH]c23)cc1`, the MIC [1] was 14 µM (≈ 5.01 µg/mL).
In the case of `COc1ccc2c(c1)nc(Cc1ccccc1)c1[nH]ccc12`, the MIC [1] was 34.7 µM (≈ 10 µg/mL).
For `Cc1nc2ccccc2c2cc[nH]c12` [MARINOQUINOLINE A], the pIC50 (Acetylcholinesterase) was 5.44.
`CC(C)(C)OC(=O)Nc1ccc(-c2nc3ccccc3c3[nH]c4ccccc4c23)cc1` showed an MIC [13] of 6.1 µM (≈ 2.5 µg/mL).
`Fc1cccc(-c2c[nH]c3c(-c4ccc(Cl)cc4)nc4ccccc4c23)c1` showed an MIC [1] of 26.8 µM (≈ 9.99 µg/mL).
